EC50 and Emax data for 14 molecules are collected here from US20240208992A1, “MACROCYCLES AS CFTR MODULATORS” (Idorsia Pharmaceuticals Ltd, priority 2021, published 2024).

For this test, the target named is human F508del-CFTR (Homo sapiens, UniProt P13569, DEL508-508). Put plainly: F508del-CFTR cell surface expression (corrector activity), DiscoveRx ß-galactosidase complementation chemiluminescence assay in recombinant U2OS cell line.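 On all read-outs here: U2OS cells co-expressing ProLink-tagged F508del-CFTR and a membrane-anchored enzyme acceptor, where more surface CFTR restores β-galactosidase activity measured by chemiluminescence.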 The note with it: U2OS cells, 16h compound incubation; for EC50: EC50, F508del-CFTR cell surface expression, geomean of several measurements; for Emax: U2OS, in relation to the Emax of the corrector lumacaftor (=100%), arithmetic mean.

The structures appear in SMILES notation.

Chain of human F508del-CFTR (P13569 with tags, fused parts or gaps DEL508-508): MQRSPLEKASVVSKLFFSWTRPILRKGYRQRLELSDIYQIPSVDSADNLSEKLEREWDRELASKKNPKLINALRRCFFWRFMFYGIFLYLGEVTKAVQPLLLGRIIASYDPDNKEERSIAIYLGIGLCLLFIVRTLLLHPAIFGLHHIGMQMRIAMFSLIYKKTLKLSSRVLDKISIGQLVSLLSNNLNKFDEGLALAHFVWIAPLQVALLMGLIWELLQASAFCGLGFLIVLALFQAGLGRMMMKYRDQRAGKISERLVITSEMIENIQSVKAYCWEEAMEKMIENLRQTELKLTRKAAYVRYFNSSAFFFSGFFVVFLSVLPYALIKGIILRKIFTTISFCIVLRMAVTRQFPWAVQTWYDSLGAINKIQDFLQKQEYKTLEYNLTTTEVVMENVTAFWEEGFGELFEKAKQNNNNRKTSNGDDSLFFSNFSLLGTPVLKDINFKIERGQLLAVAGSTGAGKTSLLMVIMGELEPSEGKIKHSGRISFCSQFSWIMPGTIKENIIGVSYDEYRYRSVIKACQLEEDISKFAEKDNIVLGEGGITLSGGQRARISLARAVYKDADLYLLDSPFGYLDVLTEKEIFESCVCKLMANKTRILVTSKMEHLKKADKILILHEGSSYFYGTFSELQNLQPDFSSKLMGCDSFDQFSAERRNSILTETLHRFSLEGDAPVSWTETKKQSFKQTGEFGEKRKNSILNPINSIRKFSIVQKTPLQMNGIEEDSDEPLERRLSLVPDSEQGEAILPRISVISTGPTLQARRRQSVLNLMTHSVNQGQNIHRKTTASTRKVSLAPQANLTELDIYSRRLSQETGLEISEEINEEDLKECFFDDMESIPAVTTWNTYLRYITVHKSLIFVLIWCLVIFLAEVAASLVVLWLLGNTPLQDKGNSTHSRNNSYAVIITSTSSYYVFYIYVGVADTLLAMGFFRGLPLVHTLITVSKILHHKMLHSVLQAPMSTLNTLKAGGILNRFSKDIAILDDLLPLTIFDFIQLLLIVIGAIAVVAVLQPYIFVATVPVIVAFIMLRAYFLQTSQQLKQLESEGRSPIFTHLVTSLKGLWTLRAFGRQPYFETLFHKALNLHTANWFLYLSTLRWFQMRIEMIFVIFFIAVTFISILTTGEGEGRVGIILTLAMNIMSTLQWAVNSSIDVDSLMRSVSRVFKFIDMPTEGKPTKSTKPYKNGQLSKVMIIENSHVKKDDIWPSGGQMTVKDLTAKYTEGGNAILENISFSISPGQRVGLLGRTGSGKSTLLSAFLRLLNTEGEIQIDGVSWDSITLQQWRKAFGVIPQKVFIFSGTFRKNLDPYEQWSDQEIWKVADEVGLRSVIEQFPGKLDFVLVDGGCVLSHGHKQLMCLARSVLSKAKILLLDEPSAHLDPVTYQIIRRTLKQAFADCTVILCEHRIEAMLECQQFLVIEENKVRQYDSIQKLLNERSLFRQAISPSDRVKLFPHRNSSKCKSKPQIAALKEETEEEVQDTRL

Turning to `COc1noc(CCNC(=O)[C@@H]2CC(=O)N(C)[C@@H](CC(C)C)C(=O)N(C)[C@H](Cc3nc(C(F)(F)F)no3)C(=O)N[C@H](Cc3ccccc3)COc3cc(C)c4ncccc4c3C(=O)N2)n1` [Example 927, (3S,7S,10R,13R)-13-benzyl-7-isobutyl-N-(2-(3-methoxy-1,2,4-oxadiazol-5-yl)ethyl)-6,9,17-trimethyl-1,5,8,11-tetraoxo-10-((3-(trifluoromethyl)-1,2,4-oxadiazol-5-yl)methyl)-1,2,3,4,5,6,7,8,9,10,11,12,13,14-tetradecahydro-[1]oxa[4,7,10,14]tetraazacycloheptadecino[16,17-f]quinoline-3-carboxamide], the EC50 stood at 27 nM and the Emax is 492%.
Consider `Cc1cc2c(c3cccnc13)C(=O)N[C@H](C(=O)NCCn1nnc(C3CC3)n1)CC(=O)N(C)[C@@H](CC(C)C)C(=O)N1CCCCC1C(=O)N[C@H](Cc1ccccc1)CO2` (stereo partly drawn) [Example 928, (9S,13S,19aS,22R)-22-benzyl-N-(2-(5-cyclopropyl-2H-tetrazol-2-yl)ethyl)-13-isobutyl-2,12-dimethyl-7,11,14,20-tetraoxo-7,8,9,10,11,12,13,14,17,18,19,19a,20,21,22,23-hexadecahydro-16H-pyrido[2′,1′:6,7][1]oxa[4,7,10,14]tetraazacycloheptadecino[16,17-f]quinoline-9-carboxamide], for which the EC50 came out at 971 nM and the Emax is 247%.
As to `CCOCC[C@@H]1C(=O)N[C@H](Cc2ccccc2)COc2ccc3ncc(F)cc3c2C(=O)N[C@H](C(=O)NCCc2nc(OC)no2)CC(=O)N(C)[C@@H](CC(C)C)C(=O)N1C` [Example 929, (3S,7S,10R,13R)-13-benzyl-10-(2-ethoxyethyl)-20-fluoro-7-isobutyl-N-(2-(3-methoxy-1,2,4-oxadiazol-5-yl)ethyl)-6,9-dimethyl-1,5,8,11-tetraoxo-1,2,3,4,5,6,7,8,9,10,11,12,13,14-tetradecahydro-[1]oxa[4,7,10,14]tetraazacycloheptadecino[16,17-f]quinoline-3-carboxamide], the EC50 worked out at 306 nM and the Emax came to 513%.
For the molecule `COc1noc(CCNC(=O)[C@@H]2CC(=O)N(C)[C@@H](CC(C)C)C(=O)N3CCCC[C@@H]3C(=O)N[C@H](Cc3ccccc3)COc3cnc4ccc(F)cc4c3C(=O)N2)n1` [Example 930, (9S,13S,19aR,22R)-22-benzyl-5-fluoro-13-isobutyl-N-(2-(3-methoxy-1,2,4-oxadiazol-5-yl)ethyl)-12-methyl-7,11,14,20-tetraoxo-7,8,9,10,11,12,13,14,17,18,19,19a,20,21,22,23-hexadecahydro-16H-pyrido[2′,1′:6,7][1]oxa[4,7,10,14]tetraazacycloheptadecino[17,16-c]quinoline-9-carboxamide], the EC50 was 142 nM and the Emax worked out at 460%.
As for `COc1cc(CCNC(=O)[C@@H]2CC(=O)N(C)[C@@H](CC(C)C)C(=O)N(C)[C@H](CC(F)F)C(=O)N[C@H](Cc3ccccc3)COc3ccc4cnc(C)cc4c3C(=O)N2)on1` [Example 931, (3S,7S,10R,13R)-13-benzyl-10-(2,2-difluoroethyl)-7-isobutyl-N-(2-(3-methoxyisoxazol-5-yl)ethyl)-6,9,20-trimethyl-1,5,8,11-tetraoxo-1,2,3,4,5,6,7,8,9,10,11,12,13,14-tetradecahydro-[1]oxa[4,7,10,14]tetraazacycloheptadecino[16,17-f]isoquinoline-3-carboxamide], the 50% effective concentration (EC50) came to 298 nM and the maximal response (Emax) came out at 507%.
For `COc1noc(CCNC(=O)[C@@H]2CC(=O)N(C)[C@@H](CC(C)C)C(=O)N(C)[C@H](CC(F)F)C(=O)N[C@H](Cc3ccccc3)COc3ccc4cnc(C)cc4c3C(=O)N2)n1` [Example 932, (3S,7S,10R,13R)-13-benzyl-10-(2,2-difluoroethyl)-7-isobutyl-N-(2-(3-methoxy-1,2,4-oxadiazol-5-yl)ethyl)-6,9,20-trimethyl-1,5,8,11-tetraoxo-1,2,3,4,5,6,7,8,9,10,11,12,13,14-tetradecahydro-[1]oxa[4,7,10,14]tetraazacycloheptadecino[16,17-f]isoquinoline-3-carboxamide], the EC50 was 373 nM and the Emax stood at 491%.
Regarding `Cc1cc2c3c(ccc2cn1)OC[C@@H](Cc1ccccc1)NC(=O)[C@@H](CC(F)F)N(C)C(=O)[C@H](CC(C)C)N(C)C(=O)C[C@@H](C(=O)NCCn1nnc(C2CC2)n1)NC3=O` [Example 933, (3S,7S,10R,13R)-13-benzyl-N-(2-(5-cyclopropyl-2H-tetrazol-2-yl)ethyl)-10-(2,2-difluoroethyl)-7-isobutyl-6,9,20-trimethyl-1,5,8,11-tetraoxo-1,2,3,4,5,6,7,8,9,10,11,12,13,14-tetradecahydro-[1]oxa[4,7,10,14]tetraazacycloheptadecino[16,17-f]isoquinoline-3-carboxamide], the EC50 turned out to be 399 nM and the Emax stood at 485%.
As to `COc1noc(CCNC(=O)[C@@H]2CC(=O)N(C)[C@@H](CC(C)C)C(=O)N(C)[C@H](Cc3nc(C(F)(F)F)no3)C(=O)N[C@H](Cc3ccccc3)COc3ccc4ncc(F)cc4c3C(=O)N2)n1` [Example 934, (3S,7S,10R,13R)-13-benzyl-20-fluoro-7-isobutyl-N-(2-(3-methoxy-1,2,4-oxadiazol-5-yl)ethyl)-6,9-dimethyl-1,5,8,11-tetraoxo-10-((3-(trifluoromethyl)-1,2,4-oxadiazol-5-yl)methyl)-1,2,3,4,5,6,7,8,9,10,11,12,13,14-tetradecahydro-[1]oxa[4,7,10,14]tetraazacycloheptadecino[16,17-f]quinoline-3-carboxamide], the concentration for a half-maximal effect (EC50) came out at 37 nM and the maximum response (Emax) was 528%.
Turning to `Cc1cc2c(c3cccnc13)C(=O)N[C@H](C(=O)NCCc1noc(C3CC3)n1)CC(=O)N(C)[C@@H](CC(C)C)C(=O)N(C)[C@H](Cc1nc(C(F)(F)F)no1)C(=O)N[C@H](Cc1ccccc1)CO2` [Example 935, (3S,7S,10R,13R)-13-benzyl-N-(2-(5-cyclopropyl-1,2,4-oxadiazol-3-yl)ethyl)-7-isobutyl-6,9,17-trimethyl-1,5,8,11-tetraoxo-10-((3-(trifluoromethyl)-1,2,4-oxadiazol-5-yl)methyl)-1,2,3,4,5,6,7,8,9,10,11,12,13,14-tetradecahydro-[1]oxa[4,7,10,14]tetraazacycloheptadecino[16,17-f]quinoline-3-carboxamide], the EC50 was found to be 24 nM and the Emax is 496%.
For `Cc1cc2c(c3cccnc13)C(=O)N[C@H](C(=O)NCCc1nc(C3CC3)no1)CC(=O)N(C)[C@@H](CC(C)C)C(=O)N(C)[C@H](Cc1nc(C(F)(F)F)no1)C(=O)N[C@H](Cc1ccccc1)CO2` [Example 936, (3S,7S,10R,13R)-13-benzyl-N-(2-(3-cyclopropyl-1,2,4-oxadiazol-5-yl)ethyl)-7-isobutyl-6,9,17-trimethyl-1,5,8,11-tetraoxo-10-((3-(trifluoromethyl)-1,2,4-oxadiazol-5-yl)methyl)-1,2,3,4,5,6,7,8,9,10,11,12,13,14-tetradecahydro-[1]oxa[4,7,10,14]tetraazacycloheptadecino[16,17-f]quinoline-3-carboxamide], the EC50 is 26 nM and the maximum response (Emax) amounted to 469%.
With `CC(C)C[C@H]1C(=O)N(C)[C@H](Cc2nc(C(F)(F)F)no2)C(=O)N[C@H](Cc2ccccc2)COc2ccc3ncc(F)cc3c2C(=O)N[C@H](C(=O)NCCn2nc3ccccc3n2)CC(=O)N1C` [Example 937, (3S,7S,10R,13R)-N-(2-(2H-benzo[d][1,2,3]triazol-2-yl)ethyl)-13-benzyl-20-fluoro-7-isobutyl-6,9-dimethyl-1,5,8,11-tetraoxo-10-((3-(trifluoromethyl)-1,2,4-oxadiazol-5-yl)methyl)-1,2,3,4,5,6,7,8,9,10,11,12,13,14-tetradecahydro-[1]oxa[4,7,10,14]tetraazacycloheptadecino[16,17-f]quinoline-3-carboxamide], the EC50 came to 59 nM and the Emax came to 460%.
On to `COc1noc(CCNC(=O)[C@@H]2CC(=O)N(C)[C@@H](CC(C)C)C(=O)N(C)[C@H](CC(F)(F)F)C(=O)N[C@H](Cc3ccccc3)COc3ccc4cnc(C)cc4c3C(=O)N2)n1` [Example 938, (3S,7S,10R,13R)-13-benzyl-7-isobutyl-N-(2-(3-methoxy-1,2,4-oxadiazol-5-yl)ethyl)-6,9,20-trimethyl-1,5,8,11-tetraoxo-10-(2,2,2-trifluoroethyl)-1,2,3,4,5,6,7,8,9,10,11,12,13,14-tetradecahydro-[1]oxa[4,7,10,14]tetraazacycloheptadecino[16,17-f]isoquinoline-3-carboxamide], for which the EC50 worked out at 245 nM and the Emax was found to be 498%.
Take `COc1noc(CCNC(=O)[C@@H]2CC(=O)N(C)[C@@H](CC(C)C)C(=O)N(C)[C@@H](CC(F)(F)F)C(=O)N[C@H](Cc3ccccc3)COc3ccc4cnc(C)cc4c3C(=O)N2)n1` [Example 939, (3S,7S,10S,13R)-13-benzyl-7-isobutyl-N-(2-(3-methoxy-1,2,4-oxadiazol-5-yl)ethyl)-6,9,20-trimethyl-1,5,8,11-tetraoxo-10-(2,2,2-trifluoroethyl)-1,2,3,4,5,6,7,8,9,10,11,12,13,14-tetradecahydro-[1]oxa[4,7,10,14]tetraazacycloheptadecino[16,17-f]isoquinoline-3-carboxamide]: the concentration for a half-maximal effect (EC50) was 737 nM and the Emax worked out at 288%.
For `COc1noc(CCNC(=O)[C@@H]2CC(=O)N(C)[C@@H](CC(C)C)C(=O)N(C)[C@@H](CC(F)(F)F)C(=O)N[C@H](Cc3ccccc3)COc3ccc4ncc(F)cc4c3C(=O)N2)n1` [Example 940, (3S,7S,10S,13R)-13-benzyl-20-fluoro-7-isobutyl-N-(2-(3-methoxy-1,2,4-oxadiazol-5-yl)ethyl)-6,9-dimethyl-1,5,8,11-tetraoxo-10-(2,2,2-trifluoroethyl)-1,2,3,4,5,6,7,8,9,10,11,12,13,14-tetradecahydro-[1]oxa[4,7,10,14]tetraazacycloheptadecino[16,17-f]quinoline-3-carboxamide], the concentration giving a half-maximal response (EC50) was found to be 673 nM and the maximal response (Emax) was determined as 298%.

One may read the EC50 as the concentration at which the effect is half-maximal. For orientation: Emax means the size of the effect at its maximum, as opposed to the concentration needed.
